From patent publication US7312323B2, “Enzymes and polynucleotides encoding the same” (The Horticulture and Food Research Institute of New Zealand …, priority 2002, dated 2007)

Key:
[1] = Bülow and König 2000; cited from earlier work
[2] = Thermal rearrangement, pentane extracts from Actinidia flowers injected at different port temperatures; format: physicochemical
Procedure: Whole flowers of the same plants were also harvested at anthesis in 2000. 18.6 g and 21 g of flowers from a mixture of developmental stages were placed in 2× Quickfit® Erlenmeyer flasks as above. Volatiles were collected onto a Chromosorb adsorbent trap in duplicate, after the system had been equilibrated for 30 min at room temperature (ca. 23° C.), by purging onto the trap with clean air at 25 mL min^−1 for 60 minutes. The trap was stored at −15° C. for one week and then analysed by GC-FD/MS. The same petals (1.99 g) were then extracted with pentane-ether (2 ml) and stored at −20° C. until analysed. The pentane (GPR, BDH) had been purified by distillation and by passing through a column of activated alumina. Pentane extracts were reduced by rotary evaporation and were dried by passing through a small column of anhydrous MgSO4 before the volume was reduced to ca. 50 μL under a gentle stream of nitrogen. The extract was analysed by GC-FID/MS.
GC-MS Analysis of dynamic headspace samples and pentane extracts: Volatile compounds were thermally desorbed from the headspace traps at 150° C. and were cryo-focussed at the beginning of the GC column (Young, 1981). The column outlet was split between the GC (Hewlett Packard 5890) FID detector (for quantitation) and VG-70SE (VG-Micromass, Manchester, U.K.) mass spectrometer (for component identification) with an electron impact ionisation of 70 eV. Separations were carried out in a 30 m×0.32 mm i.d., 0.5 μn DBWax capillary column (J & W Scientific, Folsom, USA), starting at 30° C. for 6 min, increasing by 3° C. min^−1 to 102° C., 5° C. min^−1 to 210° C. and held for 5 min. Injector temperature was 210° C. The carrier gas was He at a flow rate of ˜30 cm s^−1, and the FID and mass spectrometer transfer line were at 210° C. Quantification of compounds was carried out using an average detector response based on methyl butanoate, ethyl butanoate, hexanol and methyl benzoate. Components were identified by comparison with spectra in the mass spectral database (NIST 1998, Wiley 7 and an in-house database), retention indices (in-house database) and in some cases direct GC-MS comparison with authentic standards. Separations for the earlier 2000 samples were carried out in the same manner as above except the programme started at 30° C. for 6 min, increasing by 3° C. min^−1 to 102° C., 5° C. min^−1 to 190° C. and held for 5 min. Analysis of the pentane extract used a programme of 2 min at 40° C., 5° C. min^−1 to 200° C., 15° C. m^−1 to 240° C. and held for 20 min. For genotype 32-10-07a: the GC-MS was programmed to start at 30° C. for 2 min, increasing by 3° C. min^−1 to 50° C., 5° C. min^−1 to 130° C., 10° C. min^−1 to 240° C. and held for 2 min. Injector temperature was 240° C.
In an experiment to test for thermal rearrangement, injections of pentane extract from purified protein were made at temperatures of 125, 150 and 210° C.; or pentane extract from Actinidia flowers were made at temperatures of 100, 125, 150 and 210° C.

[3] = Thermal rearrangement, pentane extracts from purified protein injected at different port temperatures; format: physicochemical
Procedure: Dynamic headspace methods were also used to collect the headspace volatiles from the purified extracts on to 100 mg Chromosorb 105 adsorbent traps. The protein was placed into 50 mL Quickfit® test tubes, which were fitted with a headspace adaptor with an air inlet and outlet. Volatiles were collected onto the Chromosorb 105 adsorbent traps, which were fitted to the air outlet port of each adaptor. The volatiles were purged from the vessel onto the traps with clean air at 50 mL min^−1 for 18 hours. The traps were stored at −15° C. for up to one week, and then subjected to GC-FIDIMS analysis. Finally, pentane extracts were taken from the purified extracts. An aliquot (2.5 ml) of pentane was added to the purified extracts and was left to extract for 18 hours. The pentane was removed and then concentrated with a stream of N2 gas. This was then injected onto the GC-MS at 150° C.
More light can be shed on the possibility of rearrangement of the products using pentane extraction.
In an experiment to test for thermal rearrangement, injections of pentane extract from purified protein were made at temperatures of 125, 150 and 210° C.; or pentane extract from Actinidia flowers were made at temperatures of 100, 125, 150 and 210° C. […] Germacrene B modulated slightly in response to temperature shifts although no gamma-elemene was found as might be predicted. In addition the predicted precursor for delta elemene—germacrene C (Feger et al., Flavour and Fragrance Journal 15: 170-173 (2000)) was not detected at any time. Germacrene A was also not detected at any time. […] Elemol may arise from further rearrangements of delta-elemene or from other elemene sources or from hedycaryol (Chamblee et al., J. Essent. Oil Res. 9: 127-132 (1997)). No GC-MS traces in any experiments indicated evidence for germacrene-C or for hedycaryol.

Periplanata americana L. = details: Nishino et al. 1977; cited from earlier work
Heliothis virescens = details: Mozuraitis et al. 2002; cited from earlier work
[4] = injection port temperature 125 °C
[5] = injection port temperature 150 °C
[6] = injection port temperature 210 °C

Peak Area ([2]; injection port temperature 100 °C): 2.85 × 10^7 ^
Peak Area [2, 4]: 3.78 × 10^7
Peak Area [2, 5]: 3.87 × 10^7
Peak Area [2, 6]: 2.42 × 10^7
Peak Area [3, 4]: 4.22 × 10^6
Peak Area [3, 5]: 4.90 × 10^6
Peak Area [3, 6]: 3.91 × 10^6
Compound: C=C1C=CC(C(C)C)CCC(C)=CCC1 (stereo not shown) [Germacrene D, 7-iso-propyl-10-methyl-4-methylene-cyclodeca-5,10-diene]
temperature up to which stable [1]: up to 180 °C
effect on male cockroach (Periplanata americana L.): sex stimulant
effect on moth behaviour (Heliothis virescens): increase attraction of and oviposition
